Assays:
[1] = Action on isoprenaline in dogs; type: in vivo, dog; conditions: only if atropinised and bivagotomised
[2] = Antagonism of convulsions produced by cardiazole; type: in vivo; conditions: Mus musculus, ip, read-out: Percentage inhibition of tonic convulsions
Method: Groups of 6 mice received the compound under test 30 minutes before introperitoneal injection of 160 mg/kg of cardiazole. The action of the compound under test on the tonic convulsion phase was observed.

Solubility in water = type: physicochemical
[3] = Potentiation of stereotypes by amphetamine; type: in vivo, rat; conditions: 5 mg/kg dexamphetamine sulphate
Method: The compound under test was administered to groups of 5 rats intraperitoneally. Thirty minutes afterwards, 5 mg/kg of dexamphetamine sulphate was injected intraperitoneally. The duration of the phenomenon is counted at regular intervals from 0 to 4 and the counts are added up.

[4] = type: in vivo, dog; conditions: 48 mg/kg intravenously at 1 mg/kg/minute; two dogs
Method: The compounds under test were administered to rats or mice intraperitoneally. The loss of the righting reflex was noted and the duration of sleep measured objectively with reference to the loss of the righting reflex. The compounds under test were also administered by slow perfusion to dogs. The moment when the dog fell asleep and the duration of sleep was noted.
Two dogs each weighing 11 kg. received intravenously 48 mg/kg of the product of Example 1 perfused at the rate of 1 mg/kg/minute. Sleep appeared at the end of 25 minutes and lasted for 15 minutes. The animals were sleepy for 1 hour after the end of the perfusion.

Cc1cccc(Nc2ncccc2C(=O)OCCN2CCOCC2)c1C [Example 1, β-Morpholino ethyl nixylate]
potentiation of the action of isoprenaline [1]: potentiates the action of isoprenaline in 3 dogs out of 5
inhibition in vivo at 8 mg/kg ([2]; 8 mg/kg intraperitoneally): 0%
inhibition in vivo at 16 mg/kg ([2]; 16 mg/kg intraperitoneally): 12%
inhibition in vivo at 32 mg/kg ([2]; 32 mg/kg intraperitoneally): 21%
inhibition in vivo at 64 mg/kg ([2]; 64 mg/kg intraperitoneally): 62%
inhibition in vivo at 128 mg/kg ([2]; 128 mg/kg intraperitoneally): 95%
solubility in water (Solubility in water; dihydrochloride): very soluble
solubility in water (Solubility in water; monohydrochloride): sparingly soluable in water
Sum of the counts (stereotypes) ([3]; 8 mg/kg intraperitoneally): 14
Sum of the counts (stereotypes) ([3]; 16 mg/kg intraperitoneally): 18
Sum of the counts (stereotypes) ([3]; 32 mg/kg intraperitoneally): 21
Sum of the counts (stereotypes) ([3]; 64 mg/kg intraperitoneally): 33
Sum of the counts (stereotypes) ([3]; 128 mg/kg intraperitoneally): 43
duration of sleep [4]: 15 min
time animals were sleepy after the end of the perfusion [4]: 1 h
time at which sleep appeared [4]: 25 min

Source: US3959272A, “Aminoalkyl esters of 2-anilino-nicotinic acids” (Societe Anonyme dite: Hexachime, priority 1972, dated 1976)
